Key:
Experiment in all cases: relative viability (nuclei count vs DMSO), 5 days (fraction); higher = more cells survive
NVP-TAE684 + Bortezomib = compound: COc1cc(N2CCC(N3CCN(C)CC3)CC2)ccc1Nc1ncc(Cl)c(Nc2ccccc2S(=O)(=O)C(C)C)n1 [NVP-TAE684] + CC(C)C[C@H](NC(=O)[C@H](Cc1ccccc1)NC(=O)c1cnccn1)B(O)O [Bortezomib] (partner 0.002 µM)
Procedure, shortened: (§1)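 Values are medians from duplicate plates. Each reflects relative viability, defined as the nuclei count of treated wells over that of vehicle wells. Lung cancer cell lines in 1536-well plates were pin-tool dosed one day after seeding with one drug alone or with a fixed anchor-drug dose plus five library-drug doses (not always all listed) in √10 steps, then fixed, stained and imaged at 4× after 5 days.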

[1] = compound: C1=CC=C2C(=C1)N=C(S2)C(C#N)C3=NC(=NC=C3)NCCC4=CN=CC=C4 + CC(=O)Nc1cccc(-n2c(=O)n(C3CC3)c(=O)c3c(Nc4ccc(I)cc4F)n(C)c(=O)c(C)c32)c1 [Trametinib] (partner 0.02 µM)
Procedure, shortened: as §1

Vandetanib + Lapatinib = compound: COc1cc2/c(=N/c3ccc(Br)cc3F)nc[nH]c2cc1OCC1CCN(C)CC1 [Vandetanib] + CS(=O)(=O)CCNCc1ccc(-c2ccc3ncnc(Nc4ccc(OCc5cccc(F)c5)c(Cl)c4)c3c2)o1 [Lapatinib] (partner 2 µM)
Procedure, shortened: as §1

NVP-TAE684 + Lapatinib = compound: COc1cc(N2CCC(N3CCN(C)CC3)CC2)ccc1Nc1ncc(Cl)c(Nc2ccccc2S(=O)(=O)C(C)C)n1 [NVP-TAE684] + CS(=O)(=O)CCNCc1ccc(-c2ccc3ncnc(Nc4ccc(OCc5cccc(F)c5)c(Cl)c4)c3c2)o1 [Lapatinib] (partner 2 µM)
Procedure, shortened: as §1

| Cell Line | relative viability (NVP-TAE684 + Bortezomib; first compound 0.2 µM) | relative viability (NVP-TAE684 + Bortezomib; first compound 0.6325 µM) | relative viability (NVP-TAE684 + Bortezomib; first compound 2 µM) | relative viability ([1]; first compound 0.005 µM) | relative viability ([1]; first compound 0.01581 µM) | relative viability ([1]; first compound 0.05 µM) | relative viability ([1]; first compound 0.1581 µM) | relative viability ([1]; first compound 0.5 µM) | relative viability (Vandetanib + Lapatinib; first compound 0.02 µM) | relative viability (Vandetanib + Lapatinib; first compound 0.06325 µM) | relative viability (Vandetanib + Lapatinib; first compound 0.2 µM) | relative viability (Vandetanib + Lapatinib; first compound 0.6325 µM) | relative viability (Vandetanib + Lapatinib; first compound 2 µM) | relative viability (NVP-TAE684 + Lapatinib; first compound 0.2 µM) | relative viability (NVP-TAE684 + Lapatinib; first compound 0.6325 µM) | relative viability (NVP-TAE684 + Lapatinib; first compound 2 µM) |
| --- | --- | --- | --- | --- | --- | --- | --- | --- | --- | --- | --- | --- | --- | --- | --- | --- |
| NCI-H1975 | 0.359 | 0.362 | 0.21 | 0.377 | 0.362 | 0.293 | 0.414 | 0.329 | 0.846 | 0.831 | 0.862 | 0.858 | 0.81 | 0.734 | 0.791 | 0.318 |
| NCI-H1993 |  | 1.09 | 0.806 | 0.374 | 0.516 | 0.458 | 0.514 | 0.466 | 0.728 | 0.801 | 0.663 | 0.923 | 0.786 |  | 0.77 | 0.7 |
| NCI-H2009 | 0.977 | 0.897 | 0.645 | 0.26 | 0.264 | 0.26 | 0.314 | 0.334 | 0.848 | 0.887 | 1.04 | 0.981 | 1.06 | 0.938 | 0.888 | 0.731 |
| NCI-H2023 |  | 0.944 | 0.268 | 0.602 | 0.532 | 0.547 | 0.538 | 0.489 | 0.814 | 0.694 | 0.763 | 0.943 | 0.854 | 1.1 | 0.622 | 0.193 |
| NCI-H2085 | 0.95 | 0.926 | 0.955 | 0.528 | 0.652 | 0.521 | 0.576 | 0.481 | 0.749 | 0.706 | 0.837 | 0.868 | 0.748 | 0.788 | 0.632 | 0.648 |
| NCI-H2087 | 0.998 | 0.789 | 0.886 | 0.222 | 0.201 | 0.203 | 0.212 | 0.186 | 0.894 | 0.916 | 0.988 | 1.06 | 1.08 | 1.36 | 1.02 | 0.986 |
| NCI-H2126 | 1.09 | 1.07 | 0.958 | 0.536 | 0.613 | 0.559 | 0.546 | 0.58 | 0.698 | 0.747 | 0.805 | 0.724 | 0.768 | 0.755 | 0.719 | 0.55 |
| NCI-H2228 | 0.633 | 0.33 | 0.214 | 0.357 | 0.447 | 0.512 | 0.526 | 0.46 | 1.32 | 0.903 |  | 1.32 | 1.23 | 0.458 | 0.212 | 0.321 |
| NCI-H2347 | 1.41 | 0.822 | 1.02 | 0.282 | 0.268 | 0.296 | 0.3 | 0.267 | 0.972 | 0.701 | 0.913 | 0.964 | 0.89 | 1 | 0.903 | 0.955 |
| NCI-H2405 | 0.941 | 0.986 | 0.82 | 0.582 | 0.645 | 0.63 | 0.643 | 0.599 | 1.1 | 0.842 | 1.25 | 1.14 | 0.316 | 1.26 | 0.815 | 0.55 |
| NCI-H3122 | 0.763 | 0.218 | 0.162 | 0.178 | 0.238 | 0.221 | 0.216 | 0.197 | 1.05 | 0.975 | 1.04 | 1.06 | 1 | 0.369 | 0.213 | 0.18 |
| PC-3 [JPC-3] | 0.99 |  | 0.731 | 0.689 |  | 0.642 | 0.737 | 0.636 | 0.442 | 0.482 | 0.49 | 0.458 | 0.41 | 0.472 | 0.446 | 0.387 |
| PC-14 |  | 0.928 | 0.964 | 0.411 | 0.933 | 0.633 | 0.948 | 0.809 | 0.295 | 0.382 | 0.308 | 0.273 | 0.282 | 0.336 | 0.305 | 0.245 |
| RERF-LC-KJ | 0.952 | 1.25 | 0.916 | 0.916 | 0.877 | 0.911 | 0.961 | 0.688 | 0.848 | 0.839 | 0.827 | 0.843 | 0.878 | 0.871 | 0.867 | 0.905 |
| SK-LU-1 | 1.21 | 1.08 | 1.01 | 0.461 | 0.437 | 0.413 | 0.532 | 0.474 | 0.859 | 0.676 | 0.992 | 0.832 | 0.816 | 0.98 | 0.873 | 0.486 |
| SW 1573 | 1.02 |  | 0.927 | 0.615 | 0.587 | 0.479 | 0.718 | 0.499 | 1.07 | 1.21 | 0.599 | 1.2 | 1.17 | 1.16 | 1.12 | 1.13 |

Reference: the supplement of paper PMC10307832
